Results taken from patent US11180495B2 (Abbisko Therapeutics Co., Ltd., priority 2017, dated 2021).
Like-named read-outs stand apart in the source and are kept apart here.

Experiments:
[1] = test system: M-NFS-60 mouse myeloid leukemia lymphocytes; assay: CSF-1R-related cell proliferation experiment (Cell Titer Glo); type: cell-based; conditions: 72 h, M-NFS-60 cells, 3 days, CTG
Protocol: Functional effects of compounds on cell proliferation were evaluated by using Cell Titer Glo (CTG) study in the present invention. M-NFS-60 mouse myeloid leukemia lymphocytes (cat. No. CCBJ078) from National Institutes For Food and Drug Control were cultured in the incubator under conditions of RPMI 1640 (Gibco, cat. No. 11875-119), 10% fetal bovine serum (Gibco, 10099-141), human 10 ng/mL M-CSF macrophage colony-stimulating factor (R&D, cat. No. MVN0915101), 37° C. and 5% CO2. Since ATP is an index for viable cell metabolism, CTG (Promega, #G7573) reagent is a homogeneous detection method for detecting the number of viable cells in the culture by quantifying ATP. Therefore, compound-mediated inhibition for cell proliferation/survival was evaluated by quantifying ATP in cells, and the specific experimental process was as follows: • 1. The cells were plated into a tissue-culture-medium-treated 96-well plate (Costar #3904) with 5,000 cells/well/80 μL fresh culture medium: • 2. 24 hours later, 10 μL culture medium containing testing compound with 10-fold of final concentration was added to each well; • 3. 10 μL of culture medium containing M-CSF with 10-fold of the final concentration was then added to each well: • 4. dosage effect was evaluated by testing the 3-fold serial dilutions of the compound; • 5. after the cells were incubated for 3 days at 37° C. and 5% CO2, the inhibition on cell survival was quantified after 50 μL of CTG was added and the luminescence assay was performed; • 6. the compound concentration leading to half maximal inhibitory (IC50) and the compound concentration leading to absolute half maximal inhibitory (Absolute IC50) were measured by a plate reader (M1000, Tecan) and a four-parameter curve fit in Graphpad Prism 7. D. CSF-1R-Related Cell Proliferation Experiment

KIT = KIT (Homo sapiens, UniProt P10721); assay: KIT in vitro biochemical kinase study (Caliper EZ Reader); conditions: FAM-labeled polypeptide, Caliper EZ Reader II; read-out: Enzymatic experiment KIT IC50
Protocol: (§1) In the present invention, the inhibitory activity of compounds against the CSF-1R activity was determined by using CSF-1R ADP-Glo assay. The compound-mediated inhibition effect was achieved by inhibiting the production of ADP from consumption of ATP, and the activities of compounds were evaluated by using the ADP-Glo kit (Promega, cat. No. V9101). The specific experimental process was as follows: • 1. The kinase reaction performed in the present invention was carried out in a 384-well plate (Perkinelmer, cat. No. 6007290), and 3.95 nM of CSF-1R, 500 μM of ATP and 0.2 mg/mL of polypeptide (Poly (Glu4, Try1), Sigma, cat. No. P0275) were respectively weighed and added to each well: • 2. following reagents were then added to each well to reach the final reaction system: 40 mM Tris, pH 7.5, 20 mM MgCl2, 0.01% Triton X-100, 0.1 mg/mL BSA, 2.5 mM DTT and 0.1% DMSO; • 3. the reaction was conducted at 30° C. for 60 min; • 4. then an equal volume of stop solution (ADP-Glo) was added to the kinase reaction system; • 5. the mixed solution was incubated at 25° C. for 60 min, and the kinase reaction was then terminated; • 6. a two-fold volume of detection reagent was then added to each well; • 7. the mixed solution was incubated at 25° C. for 30 min; • 8. the compound IC50 value was measured by using a plate reader (Tecan, M1000) and a four-parameter curve was generated in Graphpad Prism. B. KIT/PDGFRA In Vitro Biochemical Kinase Study • 1. Preparation of 1-fold kinase buffer and stop solution • 1.1 1-fold kinase buffer: 50 mM HEPES, pH 7.5, 0.0015% Brij-35. • 1.2 stop solution: 100 mM HEPES, pH 7.5, 0.015% Brij-35, 0.2% Coating Reagent #3 50 mM EDTA • 2. Preparation of compound solution • 2.1 Dilution of compound solution • 1) The final concentration of the compound solution was 40 μM. and the concentration of the prepared stock solution was 50 times of the final concentration, i.e., 2 mM. • 2) 80 μL of 100% DMSO was added to the second well of the 96-well plate, then 20 μL of 10 mM compound solution was added, and thereby 2 mM compound solution was prepared, 60 μL of 100% DMSO was added to other wells, 20 μL of compound was taken from the second well, added to the third well and diluted by 4 times. […]

PDGFRA = PDGFRA (Homo sapiens, UniProt P16234); assay: PDGFRA in vitro biochemical kinase study (Caliper EZ Reader); conditions: FAM-labeled polypeptide, Caliper EZ Reader II; read-out: Enzymatic experiment PDGFRA IC50
Protocol: as §1

CSF-1R = target: T1, CSF-1R (Homo sapiens, UniProt P07333); assay: CSF-1R in vitro biochemical kinase study (ADP-Glo assay); conditions: 3.95 nM CSF-1R, 500 μM ATP, 30° C. 60 min, read-out: Enzymatic experiment CSF-1R IC50
T1 construct: 3.95 nM of CSF-1R, 500 μM of ATP and 0.2 mg/mL of polypeptide
Protocol: In the present invention, the inhibitory activity of compounds against the CSF-1R activity was determined by using CSF-1R ADP-Glo assay. The compound-mediated inhibition effect was achieved by inhibiting the production of ADP from consumption of ATP, and the activities of compounds were evaluated by using the ADP-Glo kit (Promega, cat. No. V9101). The specific experimental process was as follows: • 1. The kinase reaction performed in the present invention was carried out in a 384-well plate (Perkinelmer, cat. No. 6007290), and 3.95 nM of CSF-1R, 500 μM of ATP and 0.2 mg/mL of polypeptide (Poly (Glu4, Try1), Sigma, cat. No. P0275) were respectively weighed and added to each well: • 2. following reagents were then added to each well to reach the final reaction system: 40 mM Tris, pH 7.5, 20 mM MgCl2, 0.01% Triton X-100, 0.1 mg/mL BSA, 2.5 mM DTT and 0.1% DMSO; • 3. the reaction was conducted at 30° C. for 60 min; • 4. then an equal volume of stop solution (ADP-Glo) was added to the kinase reaction system; • 5. the mixed solution was incubated at 25° C. for 60 min, and the kinase reaction was then terminated; • 6. a two-fold volume of detection reagent was then added to each well; • 7. the mixed solution was incubated at 25° C. for 30 min; • 8. the compound IC50 value was measured by using a plate reader (Tecan, M1000) and a four-parameter curve was generated in Graphpad Prism. B. KIT/PDGFRA In Vitro Biochemical Kinase Study • 1. Preparation of 1-fold kinase buffer and stop solution • 1.1 1-fold kinase buffer: 50 mM HEPES, pH 7.5, 0.0015% Brij-35. • 1.2 stop solution: 100 mM HEPES, pH 7.5, 0.015% Brij-35, 0.2% Coating Reagent #3 50 mM EDTA • 2. Preparation of compound solution • 2.1 Dilution of compound solution • 1) The final concentration of the compound solution was 40 μM. and the concentration of the prepared stock solution was 50 times of the final concentration, i.e., 2 mM. • 2) 80 μL of 100% DMSO was added to the second well of the 96-well plate, then 20 μL of 10 mM compound solution was added, and thereby 2 mM compound solution was prepared, 60 μL of 100% DMSO was added to other wells, 20 μL of compound was taken from the second well, added to the third well and diluted by 4 times. This serial 4-time dilution was conducted in sequence for the total of 10 concentrations. • 2.2 5-fold compound solution transferred to a reaction plate • 1) 10 μL of solution was taken from each well of the above 96-well plate and added to another 96-well plate, and 90 μL of kinase buffer was added. • 2) 5 μL of solution was taken from the above 96-well plate and added to a 384-well reaction plate. • 2.3 Kinase reaction • 1) KIT/PDGFRA kinase was added to the 1-fold kinase buffer solution to obtain a 2.5-fold kinase solution. • 2) FAM-labeled polypeptide and ATP were added to the 1-fold kinase buffer solution to obtain a 2.5-fold substrate solution. • 3) 10 μL of 2.5-fold kinase solution was added to the 384-well reaction plate, which already contained 5 μL of 5-fold compound in 10% DMSO. And the mixed solution was incubated at room temperature for 10 min. • 4) 10 μL of 2.5-fold substrate solution was added to the 384-well reaction plate. • 5) Kinase reaction and termination: the mixed solution was incubated at 28° C. for a certain period of time, and 25 μL of stop solution was added to stop the reaction. • 2.4 Data reading of Caliper EZ Reader II • 2.5 Calculation of percent inhibition and IC50 • 1) Percent conversion data were copied from the Caliper EZ Reader. • 2) Percent conversion was converted into percent inhibition data, wherein, max referred to percent conversion of the DMSO control, and min referred to percent conversion of the negative control without kinase activity. Percent inhibition=(max−conversion)/(max−min)*100. • 3) The IC50 value was fitted with XLFit excel add-in version 5.4.0.8: Fitting formula: Y=Bottom+(Top−Bottom)/(1+(IC50/X)^HillSlope).

[2] = absolute half maximal inhibitory concentration, read-out: Cytological experiment CSF-1R Absolute IC50
[3] = read-out: Cytological experiment CSF1R IC50

Sequence of KIT (P10721 26-976): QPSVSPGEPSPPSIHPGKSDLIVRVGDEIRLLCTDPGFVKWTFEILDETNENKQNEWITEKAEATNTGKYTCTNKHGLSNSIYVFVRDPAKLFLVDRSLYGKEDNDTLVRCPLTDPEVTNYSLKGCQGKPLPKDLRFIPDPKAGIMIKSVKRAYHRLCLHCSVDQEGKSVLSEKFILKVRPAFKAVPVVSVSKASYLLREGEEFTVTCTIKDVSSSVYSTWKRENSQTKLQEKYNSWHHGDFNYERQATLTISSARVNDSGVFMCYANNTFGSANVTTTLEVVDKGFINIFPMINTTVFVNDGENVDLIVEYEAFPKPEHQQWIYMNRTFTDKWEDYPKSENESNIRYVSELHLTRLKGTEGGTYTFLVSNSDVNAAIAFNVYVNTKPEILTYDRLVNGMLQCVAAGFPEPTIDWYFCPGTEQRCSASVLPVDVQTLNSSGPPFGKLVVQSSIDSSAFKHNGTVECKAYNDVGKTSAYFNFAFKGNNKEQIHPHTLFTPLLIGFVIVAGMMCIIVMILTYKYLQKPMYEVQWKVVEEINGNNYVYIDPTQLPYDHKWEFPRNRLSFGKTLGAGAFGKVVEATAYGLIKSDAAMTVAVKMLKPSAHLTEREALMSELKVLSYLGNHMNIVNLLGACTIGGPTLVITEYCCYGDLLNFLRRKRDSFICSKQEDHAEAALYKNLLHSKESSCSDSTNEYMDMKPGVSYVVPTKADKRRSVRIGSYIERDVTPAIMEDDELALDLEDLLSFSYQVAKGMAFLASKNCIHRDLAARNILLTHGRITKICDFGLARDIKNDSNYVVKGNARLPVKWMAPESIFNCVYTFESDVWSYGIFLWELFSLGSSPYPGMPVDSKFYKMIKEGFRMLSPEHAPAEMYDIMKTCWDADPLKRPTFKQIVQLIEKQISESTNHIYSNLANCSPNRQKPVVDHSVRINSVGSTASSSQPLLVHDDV
T1 sequence (P07333 20-972): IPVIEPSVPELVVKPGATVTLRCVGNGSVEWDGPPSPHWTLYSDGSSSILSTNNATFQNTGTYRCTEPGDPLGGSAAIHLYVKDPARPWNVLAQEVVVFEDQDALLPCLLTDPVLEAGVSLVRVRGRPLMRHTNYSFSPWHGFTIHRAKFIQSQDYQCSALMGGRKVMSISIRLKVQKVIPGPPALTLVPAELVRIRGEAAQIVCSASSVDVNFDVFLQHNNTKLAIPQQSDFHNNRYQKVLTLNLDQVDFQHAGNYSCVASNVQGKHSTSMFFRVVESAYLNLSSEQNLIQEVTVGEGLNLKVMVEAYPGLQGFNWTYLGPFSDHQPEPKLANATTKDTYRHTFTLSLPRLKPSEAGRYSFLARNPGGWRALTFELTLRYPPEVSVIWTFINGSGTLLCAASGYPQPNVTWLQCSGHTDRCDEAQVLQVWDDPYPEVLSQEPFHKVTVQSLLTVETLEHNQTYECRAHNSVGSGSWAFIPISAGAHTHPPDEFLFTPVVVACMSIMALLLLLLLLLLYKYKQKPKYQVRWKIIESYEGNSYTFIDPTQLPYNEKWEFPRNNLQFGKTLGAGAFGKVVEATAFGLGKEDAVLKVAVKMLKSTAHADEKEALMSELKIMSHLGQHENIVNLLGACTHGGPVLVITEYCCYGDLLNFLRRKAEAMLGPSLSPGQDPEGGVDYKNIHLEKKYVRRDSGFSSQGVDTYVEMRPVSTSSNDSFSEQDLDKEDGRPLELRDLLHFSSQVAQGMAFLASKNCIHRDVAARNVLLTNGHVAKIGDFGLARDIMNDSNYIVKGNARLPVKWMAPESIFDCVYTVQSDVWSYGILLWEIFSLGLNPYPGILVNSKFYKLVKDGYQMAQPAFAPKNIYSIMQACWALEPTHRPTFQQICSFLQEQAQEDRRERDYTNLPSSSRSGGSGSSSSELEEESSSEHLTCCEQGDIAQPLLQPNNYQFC
Sequence of PDGFRA (P16234 24-1089): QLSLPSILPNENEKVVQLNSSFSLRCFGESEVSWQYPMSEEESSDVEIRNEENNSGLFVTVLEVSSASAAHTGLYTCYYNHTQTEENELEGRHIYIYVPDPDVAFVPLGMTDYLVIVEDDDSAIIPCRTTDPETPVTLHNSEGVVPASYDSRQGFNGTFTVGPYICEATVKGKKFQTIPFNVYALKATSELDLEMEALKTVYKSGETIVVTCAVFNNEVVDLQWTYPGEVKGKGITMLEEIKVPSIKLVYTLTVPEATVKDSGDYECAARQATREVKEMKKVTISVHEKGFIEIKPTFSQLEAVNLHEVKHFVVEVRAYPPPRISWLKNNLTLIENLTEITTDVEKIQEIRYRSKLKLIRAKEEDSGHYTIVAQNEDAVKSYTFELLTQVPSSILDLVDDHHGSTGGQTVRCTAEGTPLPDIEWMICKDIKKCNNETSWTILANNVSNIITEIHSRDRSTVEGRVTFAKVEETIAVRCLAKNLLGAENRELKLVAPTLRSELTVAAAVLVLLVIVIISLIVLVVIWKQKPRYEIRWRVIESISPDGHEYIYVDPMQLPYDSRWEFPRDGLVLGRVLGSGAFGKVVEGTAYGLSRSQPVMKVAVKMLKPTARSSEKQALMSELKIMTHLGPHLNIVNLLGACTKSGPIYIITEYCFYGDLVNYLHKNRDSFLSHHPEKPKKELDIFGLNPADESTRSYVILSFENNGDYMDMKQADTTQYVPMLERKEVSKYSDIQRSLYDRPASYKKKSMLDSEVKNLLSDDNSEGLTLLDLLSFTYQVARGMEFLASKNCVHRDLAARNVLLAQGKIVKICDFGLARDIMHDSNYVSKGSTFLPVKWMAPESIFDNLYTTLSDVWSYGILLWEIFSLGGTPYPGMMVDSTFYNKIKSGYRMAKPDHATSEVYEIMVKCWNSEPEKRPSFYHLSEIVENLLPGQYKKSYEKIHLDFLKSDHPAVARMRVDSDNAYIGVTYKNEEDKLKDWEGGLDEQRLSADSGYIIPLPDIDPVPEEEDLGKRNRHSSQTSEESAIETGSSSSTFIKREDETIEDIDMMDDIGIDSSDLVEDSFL

Row | Compound | IC50 [1, 2] [nM] | IC50 [1, 3] [nM] | IC50 (KIT) [nM] | IC50 (PDGFRA) [nM] | IC50 (CSF-1R) [nM]
1 | Cc1nc(-c2cnc(NC(C)C)[nH]c2=O)ccc1Cc1c[nH]c2ncccc12 [Example 1, 5-(5-((1H-pyrrolo[2,3-b]pyridin-3-yl)methyl)-6-methylpyridin-2-yl)-2-(isopropylamino)pyrimidin-4(3H)-one] | 18.8 | 46.5 | 248 | 6910 | 27.4
2 | Cc1nc(-c2cnc(NC(C)C)n(C)c2=O)ccc1Cc1c[nH]c2ncc(Cl)cc12 [Example 10, 5-(5-((5-chloro-1H-pyrrolo[2,3-b]pyridin-3-yl)methyl)-6-methylpyridin-2-yl)-2-(isopropylamino)-3-methylpyrimidin-4(3H)-one] | 31.5 | 40.2 | 13.7 | 681 | 32.1
